Assay results: patent publication US8426369B2, “Prevention and treatment of colon cancer” (Rutgers, The State University of New Jersey, priority 2006, dated 2013)

Key:
COX-2 = test: Cytokine-induced COX-2 protein expression in HT-29 cells (Western blot); format: cell-based, human
Procedure: Human colon carcinoma cell lines HT-29 was obtained from the American Type Culture Collection (Manassas, Va.). The cells were maintained in Dulbecco's modification of Eagle's medium (DMEM) supplemented with 10% FBS and 1% penicillin/streptomycin at 37° C. and 5% CO2. The cytokine mixture, consisting of 10 ng/ml of TNF-α, IFN-γ and LPS, was used to induce iNOS and COX-2, unless otherwise mentioned. The cells were treated with the test compound either alone or in combination with cytokines for different time intervals and harvested for protein or RNA.
(§1) The cell culture conditions and the reagents used in this example were described in Example 32. Whole cell extracts were collected after the various treatments and analyzed by western blotting. The protein samples were separated on 4-15% SDS-PAGE gels (Biorad, Hercules, Calif.) followed by transfer to a polyvinylidene fluoride membrane. The membranes were blocked with 5% milk in Tris buffer for 1 h and then incubated with the appropriate primary antibody solutions overnight at 4° C. The membranes were washed with Tris buffer, and incubated with horseradish peroxidase conjugated secondary antibody solutions for 1 h at room temperature.
(§2) The protein bands were visualized using a chemiluminescence based kit from Amersham Biosciences (Buckinghamshire, UK). […]

ERK1/2 = test: Western blot of phosphorylated ERK1/2 in cytokine-treated HT-29 cells; format: cell-based, human
Procedure: as §1
(§3) The protein bands were visualized using a chemiluminescence based kit from Amersham Biosciences (Buckinghamshire, UK). The primary antibodies against iNOS, COX-2, IκBα, cyclin D1, c-myc (Santa Cruz Bio-technology, Santa Cruz, Calif.), phospho-STAT3, phospho-Erk1/2, phospho-JNK1/2, phospho-p38, phospho-Akt, phospho-ATF2, phospho-Elk1, PARP (Cell Signaling Technology Inc., Beverly, Mass.) and actin (Sigma, St. Louis, Mo.) and secondary antibodies (Santa Cruz Biotechnology, Santa Cruz, Calif.) were used for probing the abundance of the target protein in the samples.

[1] = Body weight / overt toxicity during the ACF feeding study; format: in vivo; conditions: 40 ppm in diet
Procedure: Beginning at 5 weeks of age, all rats were fed the modified American Institute of Nutrition-76A (AIN-76A) diet. At 7 weeks of age, the animals were given s.c. injections of azoxymethane (AOM) (CAS no. 25843-45-2, Ash Stevens, Detroit, Mich.) once weekly for 2 weeks at a dose rate of 15 mg/kg body weight. One day after the second AOM injection, groups of animals (n=9 per group) were maintained on AIN-76A diet alone and AIN-76A diet containing 40 ppm pterostilbene. […] See, e.g., U.S. Application Publication No. US 2006-0057231 A1.
On the average, the animal consumed about 0.6 mg pterostilbene per day. All rats were weighed once weekly until termination of the study at 8 weeks after the second AOM treatment were sacrificed by CO2 asphyxiation. After laparotomy, the entire stomach, small intestine, and large intestine were resected. The organs were opened longitudinally, and the contents were flushed with normal saline.

p-Akt = test: Western blot of p-Akt in cytokine-treated HT-29 cells; format: cell-based, human
Procedure: as §1, §3

phospho-STAT3 = test: Western blot of phospho-STAT3 in cytokine-treated HT-29 cells; format: cell-based, human
Procedure: as §1, §3
The significance of the JAK-STAT pathway in HT-29 cells was evaluated by probing for phospho-STAT3. Cytokines activated the STAT pathway, as shown by a strong induction of phospho-STAT3.

iNOS mRNA = test: Quantitative RT-PCR of cytokine-induced iNOS mRNA in HT-29 cells; format: cell-based, human; conditions: 10 and 30 μM
Procedure: (§4) The cell culture conditions and the reagents used in this example were described in Example 32. The gene-mediated expression of iNOS and COX-2 are reported to be regulated at both the transcriptional and translational levels. In order to understand the effect of pterostilbene on cytokine-induced expression of proinflammatory enzymes and cytokines, RNA samples after treatment of HT-29 cells with cytokines and/or pterostilbene were analyzed by quantitative RT-PCR for the induction of mRNA levels of iNOS, COX-2, IL-1β, IFN-γ and TNF-α genes.
(§5) To determine the changes of mRNA levels by pterostilbene and cytokines, quantitative RT-PCR analysis was utilized, as described previously (Lee et al., Mol Pharmacol 2006; 69(6):1840-1848). Briefly, the cells were incubated with compounds for indicated period and the cells were then lysed using Trizol to extract RNA. RNA was reverse transcribed into cDNA using a high capacity cDNA archive kit (Applied Biosystems, Foster City, Calif.). The cDNA was used for quantitative PCR which was run on the ABI Prism […] sequence Detection System. The primers for the iNOS, COX-2, IFN-γ, TNF-α, IL-1β and GAPDH were obtained from Applied Biosystems (Foster City, Calif.).

cleaved PARP = test: Western blot of cleaved PARP in HT-29 cells (apoptosis marker); format: cell-based, human; conditions: 9 h or 18 h
Procedure: (§6) The cells were incubated with different concentrations of pterostilbene for 1, 2 and 3 days, and cell proliferation was estimated by measuring [^3H]thymidine incorporated into DNA. […] In order to evaluate whether pterostilbene potentiates cell cycle arrest or apoptosis in HT-29 cells, the effect of pterostilbene on the proteins regulating the cell cycle and/or apoptosis pathways was examined. Cells treated with pterostilbene for 9 h or 18 h were harvested and protein samples were analyzed by Western blotting (FIG. 8B).
as §1, §2

p-Smad3 = test: Activated Smad levels (p-Smad3) in HT-29 cells; format: cell-based, human; conditions: HT-29, data not shown
Source text: The significance of the transforming growth factor (TGF-β) pathway in down-regulating iNOS expression by pterostilbene was also investigated since TGF-β is a very potent inhibitor of iNOS and cytokines regulate Smad signaling of the TGF-β pathway. However, there was no effect of pterostilbene on activated Smad levels (p-Smad3) or in inducing TGF-β ligands (data not shown).

[2] = rats; cited from earlier work
B16M-F10 melanoma cells = conditions: intravenous administration to mice; cited from earlier work
p21 = test: Western blot of p21 in HT-29 cells; format: cell-based, human; conditions: HT-29, data not shown
Procedure: as §6, §1, §2

ATF2 = test: Western blot of cytokine-induced ATF2 phosphorylation in HT-29 cells; format: cell-based, human; conditions: cytokine-treated HT-29
Procedure: as §1
as §3, with “samples. […]” for “samples.”

TNF-α mRNA = test: Quantitative RT-PCR of cytokine-induced TNF-α mRNA in HT-29 cells; format: cell-based, human
Procedure: as §4, §5

For `COc1cc(/C=C/c2ccc(O)cc2)cc(OC)c1` [pterostilbene, (E)-4-(3,5-dimethoxystyryl)phenol], the “induction of COX-2 by the cytokine mixture” value (COX-2; 30 μM, 9, 12 and 15 h) was “markedly blocked”, the “induction of COX-2 by the cytokine mixture, different concentrations” value (COX-2; different concentrations) was “dose-dependent manner” and the “ERK1/2 activation by cytokines” value (ERK1/2) was “did not block”. For the same molecule, the overt toxicity [1] was “did not cause any overt toxicity”, the “body weights compared to control diet” value ([1]; throughout the study) was “comparable” and the “level of p-Akt” value (p-Akt) was “did not change”. The “level of induced phospho-STAT3” value (phospho-STAT3) was “did not alter”, the “iNOS mRNA induction by the cytokine mixture” value (iNOS mRNA) was “strongly inhibited” and the “level of cleaved PARP” value (cleaved PARP) was “increased”. The “activated Smad levels (p-Smad3)” value (p-Smad3) was “no effect”, the serum glucose [2] was “lower serum glucose” and the “metastatic growth of B16M-F10 melanoma cells in the liver” value (B16M-F10 melanoma cells) was “inhibited metastatic growth”. The “induction of p21” value (p21) was “no induction”, the “cytokine-induced activation (phosphorylation) of ATF2” value (ATF2) was “effective in inhibiting” and the “TNF-α mRNA induction by the cytokine mixture” value (TNF-α mRNA) was “weak inhibitory effect”.
